Experimental findings from patent US10934280B2, “Condensed thiophene derivatives useful as NaPi-IIb inhibitors” (Eli Lilly and Company, priority 2016, dated 2021) are described below.

For one test, the target named is T1, human NaPi-IIb (Homo sapiens, UniProt O95436).
T1 construct: expressed in transfected cells
T1 sequence (O95436 1-690): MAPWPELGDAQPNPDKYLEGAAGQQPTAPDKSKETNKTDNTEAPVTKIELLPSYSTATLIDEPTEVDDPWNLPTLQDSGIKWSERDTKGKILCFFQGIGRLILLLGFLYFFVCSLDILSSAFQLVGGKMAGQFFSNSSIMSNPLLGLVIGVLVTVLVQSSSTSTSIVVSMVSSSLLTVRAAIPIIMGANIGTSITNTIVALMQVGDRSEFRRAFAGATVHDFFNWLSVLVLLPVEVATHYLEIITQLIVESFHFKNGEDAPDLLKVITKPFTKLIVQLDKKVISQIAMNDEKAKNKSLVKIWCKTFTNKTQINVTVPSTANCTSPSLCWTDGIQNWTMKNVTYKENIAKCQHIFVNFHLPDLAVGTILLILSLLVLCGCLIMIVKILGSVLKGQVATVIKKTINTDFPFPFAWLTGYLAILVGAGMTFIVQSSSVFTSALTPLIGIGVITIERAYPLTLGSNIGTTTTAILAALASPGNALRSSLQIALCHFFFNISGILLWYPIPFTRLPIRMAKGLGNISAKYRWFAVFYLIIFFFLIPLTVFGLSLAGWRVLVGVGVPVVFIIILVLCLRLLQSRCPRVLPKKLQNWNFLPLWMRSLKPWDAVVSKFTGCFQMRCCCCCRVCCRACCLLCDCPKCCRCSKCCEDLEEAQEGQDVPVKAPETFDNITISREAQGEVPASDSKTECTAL
Kind of test: Inhibition of 33P uptake in human NaPi-IIb T-REX-CHO stable cell line. The class given is cell-based. The settings on record: 60 min at RT, geometric mean (SD), read-out: h NaPi-IIb rel IC50 (nM), (SD). The method, then:
Inhibition of ^33P uptake is measured in human and mouse NaPi-IIb T-REX™-CHO stable cell lines. cDNA for NaPi-IIb is subcloned in plasmid SLC34A2 pcDNA5/TO (human) and SLC34A2 pcDNA5/TO (mouse) and stable cell lines are generated from clonal isolation for both human and mouse respectively. Mouse and human stable lines are maintained in continuous culture in growth media (Dulbecco's Modified Eagle Medium: Nutrient Mixture F-12 (3:1), 10% Heat Inactivated FBS, 1% penicillin/streptomycin/FUNGIEZONE® (HYCLONE™), 20 mM HEPES, 250 μg/mL hygromycin, 5 μg/mL blasticidin). […] Cell plates may remain in the incubator until ready to be assayed. […] The plate is immediately read on a Wallac MICROBETA® Trilux liquid scintillation counter and luminometer after stop solution is added with 1 minute count per well. […] Percent inhibition at all concentrations tested (final assay concentrations 100-0.005 μM) are calculated relative to 1% DMSO (minimum effect), and the effect of 100 μM of a fully efficacious NaPi-IIb inhibitor (maximum effect). IC50 values were calculated using a 4 parameter logistic curve fitting equation. The numbers presented are the geometric means with standard deviation (SD) calculated where n is the number of runs. […]

Another test deals with T2, murine NaPi-IIb (Mus musculus, UniProt Q9DBP0).
T2 construct: expressed in transfected cells
T2 sequence (Q9DBP0 1-697): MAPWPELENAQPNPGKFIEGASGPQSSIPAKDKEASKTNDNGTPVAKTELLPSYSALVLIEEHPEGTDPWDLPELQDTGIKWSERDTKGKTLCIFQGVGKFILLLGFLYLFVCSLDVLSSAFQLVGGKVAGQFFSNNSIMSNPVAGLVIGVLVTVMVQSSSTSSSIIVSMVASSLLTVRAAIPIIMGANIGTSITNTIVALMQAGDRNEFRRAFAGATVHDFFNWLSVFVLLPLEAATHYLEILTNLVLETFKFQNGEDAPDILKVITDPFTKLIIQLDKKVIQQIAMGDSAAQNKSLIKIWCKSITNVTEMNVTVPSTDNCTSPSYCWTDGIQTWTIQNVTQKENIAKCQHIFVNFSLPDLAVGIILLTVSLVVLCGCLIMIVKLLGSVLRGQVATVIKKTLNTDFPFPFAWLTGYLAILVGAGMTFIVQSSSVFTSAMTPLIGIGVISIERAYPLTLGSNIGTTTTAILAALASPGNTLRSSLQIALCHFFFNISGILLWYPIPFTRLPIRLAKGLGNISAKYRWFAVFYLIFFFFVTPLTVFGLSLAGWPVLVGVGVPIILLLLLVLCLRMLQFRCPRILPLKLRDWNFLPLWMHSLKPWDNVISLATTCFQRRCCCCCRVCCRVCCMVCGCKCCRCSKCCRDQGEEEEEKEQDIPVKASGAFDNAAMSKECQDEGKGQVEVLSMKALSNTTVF
Nature of the test: Inhibition of 33P uptake in mouse NaPi-IIb T-REX-CHO stable cell line. To be noted: 60 min at RT, geometric mean (SD), read-out: m NaPi-IIb rel IC50 (nM), (SD). The class given is cell-based. The method, then:
Inhibition of ^33P uptake is measured in human and mouse NaPi-IIb T-REX™-CHO stable cell lines. cDNA for NaPi-IIb is subcloned in plasmid SLC34A2 pcDNA5/TO (human) and SLC34A2 pcDNA5/TO (mouse) and stable cell lines are generated from clonal isolation for both human and mouse respectively. Mouse and human stable lines are maintained in continuous culture in growth media (Dulbecco's Modified Eagle Medium: Nutrient Mixture F-12 (3:1), 10% Heat Inactivated FBS, 1% penicillin/streptomycin/FUNGIEZONE® (HYCLONE™), 20 mM HEPES, 250 μg/mL hygromycin, 5 μg/mL blasticidin). Cells are harvested from T225 cell culture flasks (CORNING®) using 0.25% Trypsin, and plated in 96 well CYTOSTAR-T™ scintillating microplates (Amersham Systems) at 40,000 cells/well in 100 μL of growth media plus 100 ng/mL of tetracycline. Cell plates are incubated overnight at 37° C. and 5% C02. The next day, compounds are serially diluted using one to three dilutions in 100% DMSO. Cell plates may remain in the incubator until ready to be assayed. A cell plate is removed from the incubator and media removed. Cells are washed 3 times with 200 μL assay buffer (137 mM NaCl, 5.4 mM KCl, 2.8 mM CaCl2), 1.2 mM MgSO4, and 14 mM Tris-HCl buffer, pH˜7.5), removing buffer in between washes. Serially diluted compounds in DMSO are further diluted 50 fold in assay buffer and 50 μL added to the CYTOSTAR-T™ assay plate, immediately followed by the addition of 50 μL of ^33P solution (PERKIN-ELMER®, Walton, Mass.; 0.05 μCi/50 μL). CYTOSTAR-T™ assay plates are covered with foil to protect from light and incubated for 60 min at RT. After the 60 min incubation, 100 μL of a stop solution (assay buffer+400 μM Phloretin) is added to the assay plate to stop ^33P uptake. The plate is immediately read on a Wallac MICROBETA® Trilux liquid scintillation counter and luminometer after stop solution is added with 1 minute count per well. Each plate may be processed separately and staggered in time so there may be no delay in counting after stop solution is added. Percent inhibition at all concentrations tested (final assay concentrations 100-0.005 μM) are calculated relative to 1% DMSO (minimum effect), and the effect of 100 μM of a fully efficacious NaPi-IIb inhibitor (maximum effect). IC50 values were calculated using a 4 parameter logistic curve fitting equation. The numbers presented are the geometric means with standard deviation (SD) calculated where n is the number of runs. Thus. Table 1 describes the relative IC50 values for Examples 1-28 against human NaPi-IIb and murine NaPi-IIb, respectively.

`CN1CCN(CC(=O)N2C3CCC2CN(Cc2cccc(C(=O)Nc4sc5c(c4C(=O)Nc4cc(F)c(CCc6ccc(C(=O)O)cc6)c(F)c4)CCCC5)c2)C3)CC1` [Example 26, 4-[2-[2,6-difluoro-4-[[2-[[3-[[8-[2-(4-methylpiperazin-1-yl)acetyl]-3,8-diazabicyclo[3.2.1]octan-3-yl]methyl]benzoyl]amino]-4,5,6,7-tetrahydrobenzothiophene-3-carbonyl]amino]phenyl]ethyl]benzoic Acid]: the IC50 was 2.4 nM at human NaPi-IIb and 15.3 nM on murine NaPi-IIb.
